The text below walks through data of US6284769A, “Nonpeptide kappa opioid receptor antagonists” (The Board of Trustees of the University of Illinois, priority 1999, dated 2001).

Test [1] deals with T1, μ opioid receptor (Homo sapiens, UniProt P35372).
T1 construct: expressed in transfected cells; host or cells: Chinese hamster ovary (CHO) cells, membranes
Description: Receptor binding, [3H]DAMGO, membranes of transfected CHO cells. The protocol:
(§1) Opioid receptor activity studies were carried out by the method of the Opiate Treatment Discovery Program of the National Institutes of Health. Receptor binding studies were conducted on Chinese hamster ovary (CHO) cells which had been transfected with human DNA encoding for the μ, δ, and κ opiate receptors, respectively.
(§2) The cell line expressing the μ opioid receptor is maintained in Ham's F-12 medium supplemented with 10% fetal bovine serum and 400 μg/ml GENETICIN (G418 sulfate). The cell line expressing the δ opioid receptor is maintained in Ham's F-12 medium supplemented with 10% fetal bovine serum and 500 μg/ml hygromycin B. The cell line expressing the κ opioid receptor is maintained in Dulbecco's minimal essential medium (DMEM) supplemented with 10% fetal bovine serum, 400 μg/ml GENETICIN (G418 sulfate), and 0.1% penicillin/streptomycin. All cell lines are grown to full confluency, then harvested for membrane preparation. The membrane used for functional assays is prepared in buffer A (20 mM HEPES, 10 mM MgCl2, and 100 mM NaCl at pH 7.4) and the membrane for binding assays is prepared in 50 mM Tris buffer, pH 7.7. Cells are harvested by scraping the plates with a rubber policeman and then centrifuged at 500 times gravity for 10 minutes. The cell pellet is suspended in buffer A or Tris buffer, homogenized in a Polytron Homogenizer, and centrifuged at 20,000 times gravity for 20 minutes. The cell pellet is washed in buffer A or Tris, centrifuged at 20,000 times gravity for another 20 minutes, and, finally, suspended in a small amount of buffer to determine protein content. Membrane is aliquoted in small vials at a concentration of 6 mg/ml per vial, stored at -70° C., and used as needed.
Binding assays were conducted using [^3 H]DAMGO, [^3 H]Cl-DPDPE and [^3 H]U69,593 as labelling ligands specific for μ, δ and κ opioid receptors, respectively. DAMGO is Tyr-D-Ala-Gly-NMePhe-[…]. The structural formulae for U69,593 and Cl-DPDPE are [drawing 10] […]
(§3) Samples were filtered over glass fiber filters and counted as described for the binding assays.

Test [2] deals with T1, μ opioid receptor. Description: [35S]GTPγS agonist/antagonist assay, μ-CHO membrane. The test is classed as biochemical. The protocol: as §1
as §2, with “The cell pellet is suspended in buffer A or Tris buffer, homogenized in a Polytron Homogenizer, and centrifuged at 20,000 times gravity for 20 minutes. The cell pellet is washed in buffer A or Tris, centrifuged at 20,000 times gravity for another 20 minutes, and, finally, suspended in a small amount of buffer to determine protein content. Membrane is aliquoted in small vials at a concentration of 6 mg/ml per vial, stored at -70° C., and used as needed.” left out
(§4) Analysis of the data for IC50 values and Hill coefficients was performed using the program PRISM. Opioid receptor binding constants, Ki, were calculated using the Cheng-Prusoff transformation, Ki=IC50 /(1+L/Kd), where L is radioligand concentration and Kd is the binding affinity of the radioligand, as determined previously by saturation analysis. […] Samples were filtered over glass fiber filters and counted as described for the binding assays. […]
(§5) Agonist activity at μ, δ and κ receptors is reported as % stimulation relative to the respective agonists DAMGO, Cl-DPDPE, and U69,593. […] A full Schild analysis was conducted, utilizing a full agonist dose response curve in the presence of at least three concentrations of the antagonist. pA2 values and Schild slopes were determined using a statistical program designed for these experiments.
(In general: GTPγS is a poorly hydrolysed GTP analogue; its binding reports G protein activation.)

Test [3] has as its target T2, κ opioid receptor (Homo sapiens, UniProt P41145).
T2 construct: expressed in transfected cells; host or cells: Chinese hamster ovary (CHO) cells, membranes
Description: Receptor binding, [3H]U69,593, membranes of transfected CHO cells. The conditions noted are these: CHO cell membranes, radioligand [3H]U69,593, 1 hour at 25° C., SEM in brackets. The protocol:
as §1
The cell line expressing the μ opioid receptor is maintained in Ham's F-12 medium supplemented with 10% fetal bovine serum and 400 μg/ml GENETICIN (G418 sulfate). […]
Cell membranes were incubated with the appropriate radioligand and unlabeled compounds of Example 1 in a total volume of 200 μl in 96-well plates, usually for 1 hour at 25° C. […] Filters were dried overnight before radioactivity levels were determined. Nonspecific binding was determined by using 1.0 μM of the unlabeled counterpart of each radioligand.
as §4

The nature of test [4]: In vivo analgesic testing on rats. The following applies: result in words.
For test [5], the target named is T3, δ opioid receptor (Homo sapiens, UniProt P41143).
T3 construct: expressed in transfected cells; host or cells: Chinese hamster ovary (CHO) cells, membranes
T3 sequence (P41143 whole entry): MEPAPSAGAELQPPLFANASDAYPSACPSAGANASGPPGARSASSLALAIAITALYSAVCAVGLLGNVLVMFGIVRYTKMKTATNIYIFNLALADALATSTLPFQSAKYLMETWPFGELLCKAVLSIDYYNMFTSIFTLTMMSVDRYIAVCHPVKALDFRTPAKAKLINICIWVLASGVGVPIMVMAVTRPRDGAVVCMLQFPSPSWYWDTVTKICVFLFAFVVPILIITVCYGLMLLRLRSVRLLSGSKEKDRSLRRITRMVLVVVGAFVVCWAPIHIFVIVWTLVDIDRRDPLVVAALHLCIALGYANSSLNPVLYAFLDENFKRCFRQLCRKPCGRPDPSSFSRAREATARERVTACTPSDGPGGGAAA
Put plainly: Receptor binding, [3H]Cl-DPDPE, membranes of transfected CHO cells. The following applies: CHO cell membranes, radioligand [3H]Cl-DPDPE, 1 hour at 25° C., SEM in brackets. The protocol: as §1
as §2, with “The cell pellet is suspended in buffer A or Tris buffer, homogenized in a Polytron Homogenizer, and centrifuged at 20,000 times gravity for 20 minutes. The cell pellet is washed in buffer A or Tris, centrifuged at 20,000 times gravity for another 20 minutes, and, finally, suspended in a small amount of buffer to determine protein content. Membrane is aliquoted in small vials at a concentration of 6 mg/ml per vial, stored at -70° C., and used as needed.” left out
as §3

For test [6], the system named is δ receptor of the T-cell. Description: Stimulatory activity at the δ receptor of the T-cell of the immune system. The test is classed as cell-based. The conditions noted are these: result in words.
Test [7] has as its target T3, δ opioid receptor. Description: [35S]GTPγS agonist/antagonist assay, δ-CHO membrane. The test is classed as biochemical. The protocol:
as §1, §2, §3

Test [8] has as its target T2, κ opioid receptor. Put plainly: [35S]GTPγS agonist/antagonist assay with Schild analysis, κ-CHO membrane. The test is classed as biochemical. The protocol: as §1, §2
Analysis of the data for IC50 values and Hill coefficients was performed using the program PRISM. Opioid receptor binding constants, Ki, were calculated using the Cheng-Prusoff transformation, Ki=IC50 /(1+L/Kd), where L is radioligand concentration and Kd is the binding affinity of the radioligand, as determined previously by saturation analysis. See Y. C. Cheng et al., Biochem. Pharmacol., 22, p. 3099-3102 (1973). […] Samples were filtered over glass fiber filters and counted as described for the binding assays. […]
as §5

[9] abbreviates: [35S]GTPγS, 60 min at 25° C., SEM in brackets.

Molecules are shown by their SMILES. Where two headings read alike, the source gives them in different places.

T2 sequence (P41145 whole entry): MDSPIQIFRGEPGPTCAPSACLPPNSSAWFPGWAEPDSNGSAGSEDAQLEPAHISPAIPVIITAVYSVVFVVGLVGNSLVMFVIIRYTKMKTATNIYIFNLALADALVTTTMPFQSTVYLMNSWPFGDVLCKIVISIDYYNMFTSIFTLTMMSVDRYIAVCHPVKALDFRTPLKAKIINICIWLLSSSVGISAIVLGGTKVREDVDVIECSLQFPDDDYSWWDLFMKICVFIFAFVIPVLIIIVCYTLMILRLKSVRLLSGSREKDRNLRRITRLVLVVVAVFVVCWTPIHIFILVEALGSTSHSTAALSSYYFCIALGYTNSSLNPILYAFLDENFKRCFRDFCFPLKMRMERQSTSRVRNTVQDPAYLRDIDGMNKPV
T1 sequence (P35372 whole entry): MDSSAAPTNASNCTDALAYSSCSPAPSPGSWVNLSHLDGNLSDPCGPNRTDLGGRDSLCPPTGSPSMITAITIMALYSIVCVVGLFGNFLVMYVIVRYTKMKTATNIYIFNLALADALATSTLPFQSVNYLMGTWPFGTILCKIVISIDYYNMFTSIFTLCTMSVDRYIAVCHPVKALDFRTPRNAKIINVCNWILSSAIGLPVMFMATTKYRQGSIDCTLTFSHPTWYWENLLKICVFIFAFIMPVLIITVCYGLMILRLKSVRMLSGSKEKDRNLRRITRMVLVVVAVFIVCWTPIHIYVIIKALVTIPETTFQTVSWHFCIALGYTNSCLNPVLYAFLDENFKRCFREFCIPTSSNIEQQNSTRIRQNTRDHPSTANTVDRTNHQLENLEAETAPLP

Broadly, the Ki is a dissociation constant, usually derived from enzyme kinetics or from competition with a known ligand. Read a high Ki as a looser hold on the target. The EC50 is the concentration at which the effect is half-maximal. As for `CN1CC[C@]23c4c5ccc(O)c4O[C@H]2c2n[nH]cc2C[C@@]3(O)[C@H]1C5` [Example 1, 17-Methyl-6,7-dehydro-3,14-hydroxy-4,5α-epoxy-6,7:5',4'(6,7: 3',4')pyrazolomorphin (tautomers)], the Ki in test [1] (CHO cell membranes, human μ receptor, radioligand [3H]DAMGO, 1 hour at 25° C., SEM in brackets) amounted to 3.75 nM; in test [3] it was 12.3 nM; in test [5], 19.1 nM. For the same compound, the “Selectivity: affinity for μ over δ” value in test [1] (ratio of binding affinities, μ versus δ) was “about 7 times”. For the same compound, in test [1] (ratio of binding affinities, μ versus κ), the “Selectivity: affinity for μ over κ” value is “about 7 times”. For the same compound, the Emax in test [2] (1 h, [35S]GTPγS, relative to full agonist DAMGO, read-out: % Stimulation μ-CHO membrane) worked out at 80.3%; in test [7] (1 h, [35S]GTPγS, relative to full agonist Cl-DPDPE, read-out: % Stimulation δ-CHO membrane), 75.2%. Besides, the 50% effective concentration (EC50) in test [2] (setting [9]) was found to be 19.3 nM; in test [7] (setting [9]), 25 nM. For the same compound, in test [2] (result in words), the “Agonist/antagonist property at the μ receptor” value is “agonist”. In addition, the Analgesic activity entry in test [4] is “potent analgesic activity”. The “Duration of analgesic activity” value in test [4] was “long duration of activity”. Also, the “Stimulatory activity at the δ receptor of the T-cell” value in test [6] is given as “weak stimulatory activity”. Also, the “Agonist/antagonist property at the δ receptor” value in test [7] (result in words) is given as “agonist”. In addition, the Kb in test [8] ([35S]GTPγS, antagonism, agonist U69,593, SEM in brackets, read-out: Ke (SEM) κ-CHO membrane) was 59.3 nM; in test [8] (full Schild analysis, κ-CHO membrane, read-out: pA2 value (converted)), 51.3 nM. The compound also displayed a Schild slope in test [8] (full Schild analysis, κ-CHO membrane) of -0.92±0.32. In test [8] (result in words), the “Agonist/antagonist property at the κ receptor” value is “antagonist”.
